Experimental data: US9777258B2, “Methods for differentiating cells into hepatic stellate cells and hepatic sinusoidal endothelial cells, cells produced by the method, and methods for using the cells” (Katholieke Universiteit Leuven, priority 2010, dated 2017)

System: Cyp1a2
Assay: Cytochrome P450 activity (P450-Glo Assay, induction of Cyp1a2)
Settings: mouse iPS-derived hepatocyte-like cells kept in final maturation medium until day 42; incubation with 100 μM phenobarbital
Protocol: Cytochrome P450 activity. Cytochrome […] activity was detected by using the non-lytic method of P450-Glo™ Assay (Promega V8771). Mouse iPS cells were incubated with luminogenic substrate (Luciferin-ME) for 4 hours at 37° C. 50 μl was mixed with 50 μl Luciferin Detection Reagent in triplicate. Mean luminescence was calculated from 11 consecutive time points with 2 minutes interval. Induction of Cyp1a2 was performed by incubation with 100 μM phenobarbital.

CCC1(c2ccccc2)C(=O)NC(=O)NC1=O [phenobarbital]
increase of Cyp1a2 activity: 45%
